The assay is described as follows: Inhibition of RIP1 in human U937 cells assessed as prevention of TNFalpha/zVAD.fmk-induced necrotic cell death preincubated for 30 to 60 mins followed by TNF-alpha induction measured after overnight incubation by Cell Titer-Glo luminescence assay. For orientation: ATP-based viability assays read luminescence as a measure of living cells.
Take `Nc1nccc2c(-c3ccc(NC(=O)Nc4cccc(C(F)(F)F)c4)cc3)cccc12`: the 50% inhibitory concentration (IC50) (commonly the midpoint of a concentration-inhibition curve) amounted to 630 nM. In the case of `Nc1nccc2c(-c3ccc(NC(=O)Nc4ccc(F)c(C(F)(F)F)c4)cc3)cccc12` it was 2500 nM; in that of `Nc1nccc2c(-c3ccc(NC(=O)Nc4cc(F)cc(C(F)(F)F)c4)cc3)cccc12`, 2500 nM. In the case of `Nc1nccc2c(-c3ccc(NC(=O)Nc4cc(C(F)(F)F)ccc4F)cc3)cccc12` it was 630 nM; in that of `CC(C)(C)c1cc(NC(=O)Nc2ccc(-c3coc4ncnc(N)c34)cc2)no1`, 200 nM; in that of `Nc1ncnc2occ(-c3ccc(NC(=O)Nc4cccc(Cl)c4)cc3)c12`, 7900 nM. In the case of `CCc1cccc(NC(=O)Nc2ccc(-c3coc4ncnc(N)c34)cc2)c1` it was 250 nM.

Turning to `Nc1ncnc2occ(-c3ccc(NC(=O)Nc4ccc(Cl)c(C(F)(F)F)c4)cc3)c12`, the IC50 turned out to be 1300 nM. In the case of `Nc1ncnc2occ(-c3ccc(NC(=O)Nc4cccc(C(F)(F)F)c4F)cc3)c12` it was 10000 nM; in that of `Nc1ncnc2occ(-c3ccc(NC(=O)Nc4cc(F)cc(C(F)(F)F)c4)cc3)c12`, 5000 nM; in that of `Nc1ncnc2occ(-c3ccc(NC(=O)Nc4ccc(F)c(C(F)(F)F)c4)cc3)c12`, 1300 nM. In the case of `O=C(Nc1cccc(-c2c[nH]c3ncc(-c4cn[nH]c4)cc23)c1)Nc1cc(C(F)(F)F)ccc1F` it was 63 nM; in that of `Nc1ccc(-c2cnc3[nH]cc(-c4cccc(NC(=O)Nc5cc(C(F)(F)F)ccc5F)c4)c3c2)cc1`, 16 nM; in that of `CS(=O)(=O)c1cccc(-c2cnc3[nH]cc(-c4cccc(NC(=O)Nc5cc(C(F)(F)F)ccc5F)c4)c3c2)c1`, 50 nM.

For the compound `NC(=O)c1cccc(-c2cnc3[nH]cc(-c4cccc(NC(=O)Nc5cc(C(F)(F)F)ccc5F)c4)c3c2)c1`, the IC50 is 63 nM. In the case of `O=C(Nc1cccc(-c2c[nH]c3ncc(-c4cccnc4)cc23)c1)Nc1cc(C(F)(F)F)ccc1F` it was 6.3 nM. With `CCS(=O)(=O)c1ccc(-c2cnc3[nH]cc(-c4cccc(NC(=O)Nc5cc(C(F)(F)F)ccc5F)c4)c3c2)cc1`, the IC50 stood at 25 nM.

For `O=C(Nc1cccc(-c2c[nH]c3ncc(-c4ccccc4)cc23)c1)NC1CCCC1`, the IC50 came to 7900 nM. In the case of `O=C(Nc1cccc(-c2c[nH]c3ncc(-c4ccccc4)cc23)c1)Nc1cc(C(F)(F)F)ccc1F` it was 160 nM; in that of `CC(=O)c1cccc(NC(=O)Nc2cccc(-c3c[nH]c4ncc(-c5ccccc5)cc34)c2)c1`, 320 nM. In the case of `COc1cccc(NC(=O)Nc2cccc(-c3c[nH]c4ncc(-c5ccccc5)cc34)c2)c1` it was 400 nM.

Turning to `O=C(Nc1cccc(-c2c[nH]c3ncc(-c4ccccc4)cc23)c1)Nc1cccc(C(F)(F)F)c1`, the half-inhibitory concentration (IC50) was determined as 79 nM.

Take `O=C(Nc1cccc(-c2c[nH]c3ncc(-c4ccccc4)cc23)c1)Nc1cccc([N+](=O)[O-])c1`: the IC50 worked out at 320 nM.

Take `Nc1nccc2c(-c3ccc(NC(=O)Nc4cc(C(F)(F)F)ccc4Cl)cc3)cccc12`: the IC50 was > 10000 nM. On to `Nc1nccc2c(-c3ccc(NC(=O)Nc4ccc(Cl)c(C(F)(F)F)c4)cc3)cccc12`, for which the IC50 amounted to 2000 nM. In the case of `O=C(Nc1ccccc1)Nc1cccc(-c2c[nH]c3ncc(-c4ccccc4)cc23)c1` [1-phenyl-3-(3-(5-phenyl-1H-pyrrolo[2,3-b]pyridin-3-yl)phenyl)urea], the IC50 was determined as 600 nM. In the case of `Nc1ncnc2occ(-c3ccc(NC(=O)Nc4cc(C(F)(F)F)cc(C(F)(F)F)c4)cc3)c12` [3-(4-{4-aminofuro[2,3-d]pyrimidin-5-yl}phenyl)-1-[3,5-bis(trifluoromethyl)phenyl]urea] it was 7900 nM; in that of `Nc1ncnc2occ(-c3ccc(NC(=O)Nc4cccc(C(F)(F)F)c4)cc3)c12` [3-(4-{4-aminofuro[2,3-d]pyrimidin-5-yl}phenyl)-1-[3-(trifluoromethyl)phenyl]urea], 1000 nM; in that of `Nc1ncnc2occ(-c3ccc(NC(=O)Nc4ccc5ccccc5c4)cc3)c12` [3-(4-{4-aminofuro[2,3-d]pyrimidin-5-yl}phenyl)-1-naphthalen-2-ylurea], 790 nM.

Values taken from BindingDB's records for doi:10.1021/ml400382p (Glaxosmithkline, 2013).
